According to ChEMBL document CHEMBL1649576, “Emergence of extended-spectrum beta-lactamase PER-1 in Proteus vulgaris and Providencia stuartii isolates from Algiers, Algeria” (2009):
In brackets after ≈: the same amount, converted by molar mass.

Key:
Assay type in all cases: functional
[1] = system: Proteus vulgaris; assay: Antimicrobial activity against Proteus vulgaris Pv8 expressing beta-lactamase PER-1 by […]
[2] = system: Proteus vulgaris; assay: Antimicrobial activity against Proteus vulgaris Pv9 expressing beta-lactamase PER-1 by […]
[3] = system: Providencia stuartii; assay: Antimicrobial activity against Providencia stuartii Ps5 expressing beta-lactamase PER-1 by […]
[4] = system: Escherichia coli; assay: Antimicrobial activity against rifampin-resistant Escherichia coli J53 transconjugated with Proteus vulgaris Pv5 expressing beta-lactamase PER-1 by […]
[5] = system: Escherichia coli; assay: Antimicrobial activity against rifampin-resistant Escherichia coli J53 transconjugated with Proteus vulgaris Pv7 expressing beta-lactamase PER-1 by […]
[6] = system: Escherichia coli; assay: Antimicrobial activity against rifampin-resistant Escherichia coli J53 transconjugated with Proteus vulgaris Pv8 expressing beta-lactamase PER-1 by […]
[7] = system: Escherichia coli; assay: Antimicrobial activity against rifampin-resistant Escherichia coli J53 transconjugated with Proteus vulgaris Pv9 expressing beta-lactamase PER-1 by […]
[8] = system: Escherichia coli; assay: Antimicrobial activity against rifampin-resistant Escherichia coli J53 transconjugated with Providencia stuartii Ps5 expressing beta-lactamase PER-1 by […]
[9] = system: Proteus vulgaris; assay: Antimicrobial activity against Proteus vulgaris Pv5 expressing beta-lactamase PER-1 by Etest
[10] = system: Proteus vulgaris; assay: Antimicrobial activity against Proteus vulgaris Pv7 expressing beta-lactamase PER-1 by Etest
[11] = system: Proteus vulgaris; assay: Antimicrobial activity against Proteus vulgaris Pv8 expressing beta-lactamase PER-1 by Etest
[12] = system: Proteus vulgaris; assay: Antimicrobial activity against Proteus vulgaris Pv9 expressing beta-lactamase PER-1 by Etest
[13] = system: Providencia stuartii; assay: Antimicrobial activity against Providencia stuartii Ps5 expressing beta-lactamase PER-1 by Etest
[14] = system: Escherichia coli; assay: Antimicrobial activity against rifampin-resistant Escherichia coli J53 transconjugated with Proteus vulgaris Pv5 expressing beta-lactamase PER-1 by Etest
[15] = system: Escherichia coli; assay: Antimicrobial activity against rifampin-resistant Escherichia coli J53 transconjugated with Proteus vulgaris Pv7 expressing beta-lactamase PER-1 by Etest
[16] = system: Escherichia coli; assay: Antimicrobial activity against rifampin-resistant Escherichia coli J53 transconjugated with Proteus vulgaris Pv8 expressing beta-lactamase PER-1 by Etest
[17] = system: Escherichia coli; assay: Antimicrobial activity against rifampin-resistant Escherichia coli J53 transconjugated with Proteus vulgaris Pv9 expressing beta-lactamase PER-1 by Etest
[18] = system: Escherichia coli; assay: Antimicrobial activity against rifampin-resistant Escherichia coli J53 transconjugated with Providencia stuartii Ps5 expressing beta-lactamase PER-1 by Etest
[19] = system: Proteus vulgaris; assay: Antimicrobial activity against Proteus vulgaris Pv5 expressing beta-lactamase PER-1 by […]
[20] = system: Proteus vulgaris; assay: Antimicrobial activity against Proteus vulgaris Pv7 expressing beta-lactamase PER-1 by […]

SMILES	MIC [1] [mg/L]	MIC [2] [mg/L]	MIC [3] [mg/L]	MIC [4] [mg/L]	MIC [5] [mg/L]	MIC [6] [mg/L]	MIC [7] [mg/L]	MIC [8] [mg/L]	MIC [9] [mg/L]	MIC [10] [mg/L]	MIC [11] [mg/L]	MIC [12] [mg/L]	MIC [13] [mg/L]	MIC [14] [mg/L]	MIC [15] [mg/L]	MIC [16] [mg/L]	MIC [17] [mg/L]	MIC [18] [mg/L]	MIC [19] [mg/L]	MIC [20] [mg/L]
CC(C)(O/N=C(\C(=O)N[C@@H]1C(=O)N2C(C(=O)[O-])=C(C[n+]3ccccc3)CS[C@H]12)c1csc(N)n1)C(=O)O [CEFTAZIDIME]	> 256	> 256	> 256	> 256	> 256	> 256	> 256	> 256	> 256	> 256	> 256	> 256	> 256	> 256	> 256	> 256	> 256	> 256	> 256	> 256
CO/N=C(\C(=O)N[C@@H]1C(=O)N2C(C(=O)[O-])=C(C[N+]3(C)CCCC3)CS[C@H]12)c1csc(N)n1 [CEFEPIME]	32 (≈ 66.6 µM)	8 (≈ 16.6 µM)	8 (≈ 16.6 µM)	16 (≈ 33.3 µM)		8 (≈ 16.6 µM)	8 (≈ 16.6 µM)		32 (≈ 66.6 µM)	16 (≈ 33.3 µM)	32 (≈ 66.6 µM)	8 (≈ 16.6 µM)	8 (≈ 16.6 µM)	16 (≈ 33.3 µM)		8 (≈ 16.6 µM)	8 (≈ 16.6 µM)		32 (≈ 66.6 µM)	16 (≈ 33.3 µM)
CCN1CCN(C(=O)N[C@@H](C(=O)N[C@@H]2C(=O)N3[C@@H]2SC(C)(C)[C@@H]3C(=O)O)c2ccccc2)C(=O)C1=O [PIPERACILLIN]	16 (≈ 30.9 µM)	32 (≈ 61.8 µM)	32 (≈ 61.8 µM)	16 (≈ 30.9 µM)	32 (≈ 61.8 µM)	16 (≈ 30.9 µM)	32 (≈ 61.8 µM)	32 (≈ 61.8 µM)	16 (≈ 30.9 µM)	32 (≈ 61.8 µM)	16 (≈ 30.9 µM)	32 (≈ 61.8 µM)	32 (≈ 61.8 µM)	16 (≈ 30.9 µM)	32 (≈ 61.8 µM)	16 (≈ 30.9 µM)	32 (≈ 61.8 µM)	32 (≈ 61.8 µM)	16 (≈ 30.9 µM)	32 (≈ 61.8 µM)
CO/N=C(\C(=O)N[C@@H]1C(=O)N2C(C(=O)O)=C(COC(C)=O)CS[C@H]12)c1csc(N)n1 [CEFOTAXIME]	32 (≈ 70.3 µM)	32 (≈ 70.3 µM)	32 (≈ 70.3 µM)	32 (≈ 70.3 µM)	32 (≈ 70.3 µM)	16 (≈ 35.1 µM)	32 (≈ 70.3 µM)	32 (≈ 70.3 µM)	32 (≈ 70.3 µM)	32 (≈ 70.3 µM)	32 (≈ 70.3 µM)	32 (≈ 70.3 µM)	32 (≈ 70.3 µM)	32 (≈ 70.3 µM)	31 (≈ 68.1 µM)	16 (≈ 35.1 µM)	32 (≈ 70.3 µM)	32 (≈ 70.3 µM)	32 (≈ 70.3 µM)	32 (≈ 70.3 µM)
C[C@@H](O)[C@H]1C(=O)N2C(C(=O)O)=C(SCCNC=N)C[C@H]12 [IMIPENEM ANHYDROUS]	1 (≈ 3.34 µM)	1 (≈ 3.34 µM)	2 (≈ 6.68 µM)	0.25 (≈ 0.835 µM)	0.125 (≈ 0.418 µM)	0.125 (≈ 0.418 µM)	0.25 (≈ 0.835 µM)	0.125 (≈ 0.418 µM)	1 (≈ 3.34 µM)	1 (≈ 3.34 µM)	1 (≈ 3.34 µM)	1 (≈ 3.34 µM)	2 (≈ 6.68 µM)	0.25 (≈ 0.835 µM)	0.125 (≈ 0.418 µM)	0.125 (≈ 0.418 µM)	0.25 (≈ 0.835 µM)	0.125 (≈ 0.418 µM)	1 (≈ 3.34 µM)	1 (≈ 3.34 µM)
